In US20120053148A1, “INHIBITORS OF HEPATITIS C VIRUS” (GILEAD SCIENCES, INC., priority 2010, published 2012):
Where two headings read alike, the source gives them in different places.

System: HCV Replicon IB
Assay: HCV replicon assay in Huh-7 cells, genotype 1b (Rluc luciferase readout)
Assay type: cell-based, hepatitis C virus
Conditions: for inhibition at 10 µM: 72 h, 1b-Rluc replicon, read-out: Inhibition @ 10 uM in 1b-Rluc; for EC50: read-out: EC50_HCV1B_
[1] = Hepatitis C virus, Huh-7 cells, 3 days
[2] = Hepatitis C virus, Huh-7, 72 h, HCV1B replicon, Huh-7 cells, 3 days
[3] = HCV1B replicon, Huh-7 cells, 3 days

SMILES | inhibition at 10 µM [1] | EC50 [2] | other results
O=C(NC[C@@H]1C[C@@H](F)CN1)c1cc(Cl)c2cc(OC(F)F)cc(C(F)(F)F)c2n1 (single isomer, unassigned) [Compound 199] | 98.1% |  | 
Cc1cc(C(=O)NCc2ccccn2)nc2c(C(F)(F)F)cc(C#CC3CC3)cc12 [Compound 147] | 94.1% |  | 
Cc1cc(-c2nnc(NCC3OCCO3)o2)nc2c(C(C)(C)C)cc(C3CC3)cc12 [Compound 283] | 100% |  | 
Cc1cc(C(=O)NCc2ccccn2)nc2c(C(F)(F)F)cc(C3CC3)cc12 [Compound 79] | 100% |  | 
Cc1cc(-c2nnc(NCC3(C)OCCO3)o2)nc2c(C(F)(F)F)cc(C3CC3)cc12 [Compound 247] | 100% |  | 
COCCNc1nnc(-c2cc(C)c3cc(OC)cc(C(F)(F)F)c3n2)o1 [Compound 275] | 99.7% |  | 
CC(C)(C)c1cc(OCC(F)(F)F)cc2c(N)cc(-c3nnc(Nc4ccccn4)o3)nc12 [Compound 520] |  | 0.44 nM | 
Cc1cc(-c2nnc(N[C@H]3CC[C@@H](O)CC3)o2)nc2c(C(C)(C)C)cc(OCC(F)(F)F)cc12 [Compound 498] |  | 2.39 nM | 
Nc1cc(C(=O)NC[C@H]2CC(F)(F)CCN2)nc2c(C(F)(F)F)cc(OC(F)F)cc12 [Compound 315] |  | 83.9 nM | 
Cc1cc(-c2nnc(N[C@H]3C[C@@H](O)C3)s2)nc2c(C(C)(C)C)cc(OCC(F)(F)F)cc12 [Compound 518] |  | 51.3 nM | 
Cc1cc(C(=O)NC[C@@H]2CC(F)(F)CCN2)nc2c(C(F)(F)F)cc(C3CC3)cc12 [Compound 132] | 100% |  | 
Nc1nnc(-c2cc(N)c3cc(C4CC4)cc(C(F)(F)F)c3n2)s1 [Compound 373] |  | 65 nM | 
Cc1cc(-c2nnc(N[C@H]3C[C@@H](O)C3)o2)nc2c(C(C)(C)C)cc(OCC(C)C)cc12 [Compound 534] |  |  | EC50 (Hepatitis C virus, Huh-7, 72 h): 154 nM
Cc1cc(C(=O)NCCO)nc2c(C(F)(F)F)cc(-c3ccccc3)cc12 [Compound 166] | 93.8% |  | 
O=C(NCC1C[S+]([O-])CCN1)c1cc(Cl)c2cc(OC(F)F)cc(C(F)(F)F)c2n1 (stereo not shown) [Compound 196] | 55% |  | 
Cc1cc(-c2nnc(NC3CC(C)(O)C3)o2)nc2c(C(C)(C)C)cc(OCC(F)(F)F)cc12 (stereo not shown) [Compound 466] |  | 0.88 nM | 
Cc1cc(-c2nnc(NCC3COC(C)(C)O3)o2)nc2c(C(C)(C)C)cc(C3CC3)cc12 (stereo not shown) [Compound 415] |  | 85 nM | 
CC(C)(C)c1cc(C2CC2)cc2c(N)cc(-c3nnc(NCCCO)o3)nc12 [Compound 365] |  | 4.87 nM | 
Cc1cc(C(=O)NCC2CCN2)nc2c(C(F)(F)F)cc(C3CC3)cc12 (stereo not shown) [Compound 125] | 95.2% |  | 
Cc1cc(-c2nnc(Nc3ccccn3)o2)nc2c(C(C)(C)C)cc(C3CC3)cc12 [Compound 402] |  | 2.86 nM | 
Cc1cc(-c2nnc(NCCO)o2)nc2c(C(F)(F)F)cc(C3CC3)cc12 [Compound 255] | 99.4% |  | 
Cc1cc(-c2nnc(NCC(C)(C)CO)s2)nc2c(C(F)(F)F)cc(C3CC3)cc12 [Compound 304] | 96.2% |  | 
CC(=O)N(C)c1cc(C(F)(F)F)c2nc(C(=O)NCc3ccccn3)cc(C)c2c1 [Compound 180] | 65.5% |  | 
CC(C)(C)c1cc(C2CC2)cc2c(N)cc(-c3nnc(NC[C@@H]4CCCO4)o3)nc12 [Compound 359] |  |  | EC50 [3]: 1.21 nM
Cc1cc(C(=O)NCc2cnccn2)nc2c(-c3ccccc3)cc(C3CC3)cc12 [Compound 549] |  | 65.5 nM | 

SMILES | inhibition at 10 µM [1] | EC50 [2] | other results
Cc1cc(-c2nnc(Nc3ccccc3)o2)nc2c(C(F)(F)F)cc(C3CC3)cc12 [Compound 242] | 100% |  | 
Cc1cc(-c2nnc(NCC3CC(F)(F)CN3)s2)nc2c(C(C)(C)C)cc(C3CC3)cc12 (stereo not shown) [Compound 381] |  | 2930 nM | 
C=C(C)c1cc(C(F)(F)F)c2nc(C(=O)NCc3ccccn3)cc(C)c2c1 [Compound 156] | 99.6% |  | 
CCCO[C@H]1CN[C@H](CNC(=O)c2cc(N)c3cc(C4CC4)cc(C(C)(C)C)c3n2)C1 [Compound 331] |  | 243 nM | 
Cc1cc(-c2nnc(N[C@@H]3CCOC3)o2)nc2c(C(C)(C)C)cc(OCC(F)(F)F)cc12 [Compound 450] |  | 3.15 nM | 
CCCCNc1nnc(-c2cc(N)c3cc(C4CC4)cc(C(C)(C)C)c3n2)o1 [Compound 344] |  | 11 nM | 
CCC(O)CNC(=O)c1cc(C)c2cc(-c3ccccc3)cc(C(F)(F)F)c2n1 (stereo not shown) [Compound 165] | 96.5% |  | 
O=C(NC[C@@H]1CC(F)(F)CCN1)c1cc(Cl)c2cc(OC(F)F)cc(C(F)(F)F)c2n1 (single isomer, unassigned) [Compound 203] | 98.3% |  | 
Cc1cc(C(=O)NCC2(O)CC2)nc2c(C(F)(F)F)cc(-c3ccccc3)cc12 [Compound 163] | 98.3% |  | 
Cc1cc(-c2nnc(N[C@H]3C[C@H](O)C3)o2)nc2c(C(C)(C)C)cc(OCC(F)(F)F)cc12 [Compound 463] |  | 3.76 nM | 
CCCNc1nnc(-c2cc(C)c3cc(C4CC4)cc(C(F)(F)F)c3n2)o1 [Compound 387] |  | 3.3 nM | 
Cc1cc(C(=O)NC[C@H]2CC(F)(F)CN2)nc2c(C(F)(F)F)cc(OC(F)F)cc12 [Compound 190] | 94.7% |  | 
Cc1cc(C(=O)NCC2(C)COC2)nc2c(C(F)(F)F)cc(C3CC3)cc12 [Compound 103] | 96.1% |  | 
CNc1cc(C(=O)NCc2ccccn2)nc2c(C(F)(F)F)cc(C3CC3)cc12 [Compound 216] | 98.2% |  | 
CC(C)(C)c1cc(C2CC2)cc2c(NC(=O)CN)cc(-c3nnc(NC4CCCC4)o3)nc12 [Compound 360] |  |  | EC50 (Hepatitis C virus, Huh-7, 72 h): 44.1 nM
Cc1cc(C(=O)NCC2(N)CC2)nc2c(C(F)(F)F)cc(C3CC3)cc12 [Compound 88] | 95.6% |  | 
Cc1cc(C(=O)NCCC2CCCCN2)nc2c(C(F)(F)F)cc(C3CC3)cc12 (stereo not shown) [Compound 124] | 99.2% |  | 
Cc1cc(C(=O)NC[C@@H]2CC(F)(F)CCN2)nc2c(C(F)(F)F)cc(OC(F)F)cc12 (single isomer, unassigned) [Compound 202] | 99.5% |  | 
Cc1cc(-c2nnc(NCCCS(N)(=O)=O)o2)nc2c(C(C)(C)C)cc(C3CC3)cc12 [Compound 393] |  | 1200 nM | 
Cc1cc(C(=O)NCc2ccccn2)nc2c(C(F)(F)F)cc(OCC(F)(F)F)cc12 [Compound 189] | 99.8% |  | 
Cc1cc(-c2nnc(N[C@H]3C[C@@](O)(CF)C3)o2)nc2c(C(C)(C)C)cc(OCC(F)(F)F)cc12 [Compound 517] |  | 5.76 nM | 
Cc1cc(-c2nnc(Nc3ccccc3)[nH]2)nc2c(C(F)(F)F)cc(C3CC3)cc12 [Compound 272] | 93.6% |  | 
Cc1cc(-c2nnc(NCC3CCS(=O)(=O)C3)o2)nc2c(C(F)(F)F)cc(C3CC3)cc12 (stereo not shown) [Compound 266] | 90.6% |  | 
Cc1cc(-c2nnc(NCCCS(C)(=O)=O)o2)nc2c(C(F)(F)F)cc(C3CC3)cc12 [Compound 269] | 87.4% |  | 
Cc1cc(-c2nnc(N[C@H]3C[C@@H](O)C3)o2)nc2c(C(C)(C)C)cc(OCC(F)(F)F)cc12 [Compound 462] |  | 1.54 nM | 

SMILES | inhibition at 10 µM [1] | EC50 [2] | other results
N#Cc1cc(-c2nnc(Nc3ccccc3)o2)nc2c(C(F)(F)F)cc(-c3ccccc3)cc12 [Compound 175] | 89.3% |  | 
Cc1cc(C(=O)NC[C@@H]2CS(=O)(=O)CCN2)nc2c(C(C)(C)C)cc(OCC(F)(F)F)cc12 [Compound 509] |  | 3.61 nM | 
Cc1cc(-c2nnc(N[C@H]3C[C@](O)(CF)C3)o2)nc2c(C(C)(C)C)cc(OCC(F)F)cc12 [Compound 528] |  | 0.41 nM | 
Cc1cc(-c2nnc(NC3CS(=O)(=O)C3)o2)nc2c(C(C)(C)C)cc(OCC(F)(F)F)cc12 [Compound 506] |  | 62.5 nM | 
Cc1cc(-c2nnc(NCC(F)(F)CO)o2)nc2c(C(C)(C)C)cc(OCC(F)(F)F)cc12 [Compound 459] |  | 4.32 nM | 
Cc1cc(-c2nnc(NC[C@@H]3CCCO3)o2)nc2c(C(C)(C)C)cc(C3CC3)cc12 [Compound 398] |  | 3.69 nM | 
Cc1cc(C(=O)NCc2ccccn2)nc2c(C(F)(F)F)cc(CC(C)C)cc12 [Compound 140] | 99.1% |  | 
Cc1cc(-c2nnc(NC3CC(O)C3)o2)nc2c(C(C)(C)C)cc(OCC(F)(F)F)cc12 (stereo not shown) [Compound 461] |  | 1.38 nM | 
Cc1cc(C(=O)NCc2ccccn2)nc2c(C(F)(F)F)cc(C3(C)CC3)cc12 [Compound 138] | 99% |  | 
Cc1cc(-c2nnc(NC3CCCC3)o2)nc2c(C(F)(F)F)cc(C3CC3)cc12 [Compound 390] |  | 1.75 nM | 
Cc1cc(C(=O)NCC2OCCCO2)nc2c(C(F)(F)F)cc(C3CC3)cc12 [Compound 82] | 100% |  | 
Cc1cc(-c2nnc(NCCCO)s2)nc2c(C(F)(F)F)cc(C3CC3)cc12 [Compound 286] | 99.9% |  | 
CC(=O)c1cc(C2CC2)cc2c(C)cc(-c3nnc(NCC4OCCO4)o3)nc12 [Compound 541] |  | 18.6 nM | 
Cc1cc(-c2nnc(N[C@H]3C[C@](O)(C(F)S(=O)(=O)c4ccccc4)C3)o2)nc2c(C(C)(C)C)cc(OCC(F)(F)F)cc12 (stereo partly shown) [Compound 481] |  | 2880 nM | 
Cc1cc(-c2nnc(NCCCN3CCOCC3)o2)nc2c(C(F)(F)F)cc(C3CC3)cc12 [Compound 251] | 80.9% |  | 
Cc1cc(C(=O)NCC#N)nc2c(C(F)(F)F)cc(-c3ccccc3)cc12 [Compound 105] | 82.8% |  | 
CC(C)(C)c1cc(C2CC2)cc2c(N)cc(-c3nnc(Nc4cccc(S(N)(=O)=O)c4)o3)nc12 [Compound 357] |  | 356 nM | 
Cc1cc(-c2nnc(NCC3OCCO3)o2)nc2c(C(C)(C)O)cc(C3CC3)cc12 [Compound 542] |  | 43.8 nM | 
Cc1cc(C(=O)NCC2OCCO2)nc2c(C(F)(F)F)cc(C3CC3)cc12 [Compound 96] | 99.9% |  | 
Cc1cc(-c2nnc(NC3CSC3)o2)nc2c(C(C)(C)C)cc(OCC(F)(F)F)cc12 [Compound 505] |  | 6.25 nM | 
CCCCOc1cc(C(F)(F)F)c2nc(C(=O)NCc3ccccn3)cc(C)c2c1 [Compound 183] | 88.8% |  | 
Cc1cc(-c2nnc(N)o2)nc2c(C(F)(F)F)cc(C3CC3)cc12 [Compound 243] | 88.4% |  | 
Cc1cc(-c2nnc(N[C@H]3CC[C@@](C)(O)CC3)o2)nc2c(C(C)(C)C)cc(OCC(F)(F)F)cc12 [Compound 496] |  |  | EC50 [3]: 13.7 nM
